Results: article PMC6391970, “Design, Synthesis and Characterization of Covalent KDM5 Inhibitors” (Angewandte Chemie (International Ed. in English), 2018)

Biological target: T1, KDM3A (Homo sapiens, UniProt Q9Y4C1)
T1 sequence (Q9Y4C1 1-1321): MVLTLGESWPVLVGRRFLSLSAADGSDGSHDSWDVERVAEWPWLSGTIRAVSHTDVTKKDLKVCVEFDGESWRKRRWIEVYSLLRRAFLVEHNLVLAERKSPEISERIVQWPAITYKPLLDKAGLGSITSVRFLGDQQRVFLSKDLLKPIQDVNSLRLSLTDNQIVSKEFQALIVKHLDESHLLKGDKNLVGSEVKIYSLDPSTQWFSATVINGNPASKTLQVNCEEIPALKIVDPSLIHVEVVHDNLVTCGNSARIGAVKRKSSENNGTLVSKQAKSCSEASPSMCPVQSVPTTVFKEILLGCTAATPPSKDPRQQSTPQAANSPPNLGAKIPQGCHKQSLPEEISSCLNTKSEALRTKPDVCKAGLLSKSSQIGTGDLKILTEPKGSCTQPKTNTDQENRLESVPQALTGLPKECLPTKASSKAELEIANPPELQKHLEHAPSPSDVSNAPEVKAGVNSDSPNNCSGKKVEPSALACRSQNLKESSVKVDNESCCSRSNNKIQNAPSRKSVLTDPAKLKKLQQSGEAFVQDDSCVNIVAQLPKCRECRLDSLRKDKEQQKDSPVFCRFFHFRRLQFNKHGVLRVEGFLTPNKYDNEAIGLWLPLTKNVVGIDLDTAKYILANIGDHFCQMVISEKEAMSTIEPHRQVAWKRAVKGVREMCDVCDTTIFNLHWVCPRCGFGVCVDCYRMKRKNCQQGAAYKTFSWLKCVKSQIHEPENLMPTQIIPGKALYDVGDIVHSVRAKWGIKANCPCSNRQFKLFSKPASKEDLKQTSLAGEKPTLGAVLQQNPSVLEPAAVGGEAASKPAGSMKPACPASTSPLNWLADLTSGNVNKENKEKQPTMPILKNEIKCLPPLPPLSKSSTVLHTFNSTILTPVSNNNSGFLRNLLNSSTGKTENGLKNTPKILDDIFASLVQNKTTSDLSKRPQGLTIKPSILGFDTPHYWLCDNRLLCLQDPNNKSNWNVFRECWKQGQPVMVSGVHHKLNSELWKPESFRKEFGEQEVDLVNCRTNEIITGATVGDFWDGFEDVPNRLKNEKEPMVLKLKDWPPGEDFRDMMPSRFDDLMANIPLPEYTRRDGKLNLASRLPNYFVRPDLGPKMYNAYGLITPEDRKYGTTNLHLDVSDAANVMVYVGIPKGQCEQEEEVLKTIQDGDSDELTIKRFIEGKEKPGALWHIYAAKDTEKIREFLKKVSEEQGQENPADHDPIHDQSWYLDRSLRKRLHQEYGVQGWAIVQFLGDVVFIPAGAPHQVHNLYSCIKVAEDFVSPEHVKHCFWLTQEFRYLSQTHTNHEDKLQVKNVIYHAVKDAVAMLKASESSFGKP
Assay: KDM AlphaScreen selectivity panel, KDM3A
Format: biochemical
Conditions: for IC50: AlphaScreen after 120 min pre-incubation, read-out: KDM IC50 3A; for SI over KDM5B, 3A: KDM3A IC50/KDM5B IC50
Protocol: A panel of JmjC KDMs was tested by AlphaScreen to determine the selectivity of the compounds (Table S2). […]
KDM alpha screen selectivity
Inhibition of histone demethylases was assessed using the histone demethylase AlphaScreen assay (Amplified Luminescence Proximity Homogenous Assay) as previously reported.[4] The basis of this assay for lysine demethylases have been widely described.[5] In brief, the assay was performed in 384-well plate format using white proxiplates (PerkinElmer), and transfer of titrations of compounds (100 nl) was performed using an ECHO 550 acoustic dispenser […]
Tween- 20) containing the appropriate demethylase enzyme (see Supplementary table 1 for final concentrations) was transferred to each well of a 384-well proxiplate with a Multidrop™ Combi Reagent Dispenser, and the enzymes allowed to pre-incubate for 120 minutes with compound (final concentration of DMSO was 1%). After that time, the enzyme reaction was initiated by addition of 5 µl of a substrate mix consisting of Ketoglutarate (2-OG), Ferrous Ammonium Sulphate (FAS), L-Ascorbic Acid (LAA) and biotinylated peptide substrate (see Supporting table X for final assay concentrations) and the reaction incubated for the indicated time at room temperature. Reaction was stopped by the addition of 5 μl of assay buffer containing EDTA (7.5 mM) and NaCl (400 mM). Streptavidin Donor beads (0.08 mg/ml) and Protein-A conjugated acceptor beads (0.08 mg/ml) (AlphaScreen General IgG detection kit was from Perkin Elmer) were pre-incubated for 1 hour with an antibody to the product methyl mark (Supplementary Table 1) and the presence of biotin-H3-product was detected by addition of 5 µl of the pre-incubated AlphaScreen beads (final concentrations of 0.02 mg/ml with respect to acceptor and donor beads). Detection was allowed to proceed for 2 hour at room temperature and the assay plates read in a BMG Labtech Pherastar FS plate reader (excitation, 680 nm; emission, 570 […]
IC50(t) = Ki (1 + K ) . ( η . k .t − 1) (1) […]
Table S4. AlphaScreen assay conditions for the KDM selectivity panel

IC50	SI over KDM5B, 3A	SMILES
9.4 ± 0.4 µM	547	C=CC(=O)N1CCC(n2cc(-c3[nH]c4c(C#N)cnn4c(=O)c3C(C)C)cn2)CC1 [Compound 10]
9.1 ± 0.8 µM	1007	CC(C)c1c(-c2cnn(C3CCN(C(=O)CCl)CC3)c2)[nH]c2c(C#N)cnn2c1=O [Compound 11]
17 ± 0.4 µM	264	C=CC(=O)NCCOc1ccc(-c2[nH]c3c(C#N)cnn3c(=O)c2C(C)C)cc1 [Compound 9]
8.4 ± 4.1 µM	–	C=CC(=O)Nc1cccc(CN(C)CCc2cnn(-c3nccc4c(=O)[nH]cnc34)c2)c1 [Compound 4]
2.6 ± 0.1 µM	260	CN(CCc1cnn(-c2nccc3c(=O)[nH]cnc23)c1)Cc1cccc(NC(=O)CCl)c1 [Compound 5]
5.7 ± 0.4 µM	806	CC(C)c1c(-c2cnn(CCNC(=O)CCl)c2)[nH]c2c(C#N)cnn2c1=O [Compound 7]
